According to patent publication US7338776B2, “Production of UGPPase” (JCR Pharmaceuticals Co., Ltd., priority 2002, dated 2008):

T1: human UGPPase (Homo sapiens, UniProt O95848)
T1 construct: made in house; host or cells: E. coli AD494(DE3), plasmid pET11a-AAD15563.1
T1 sequence (O95848 1-222): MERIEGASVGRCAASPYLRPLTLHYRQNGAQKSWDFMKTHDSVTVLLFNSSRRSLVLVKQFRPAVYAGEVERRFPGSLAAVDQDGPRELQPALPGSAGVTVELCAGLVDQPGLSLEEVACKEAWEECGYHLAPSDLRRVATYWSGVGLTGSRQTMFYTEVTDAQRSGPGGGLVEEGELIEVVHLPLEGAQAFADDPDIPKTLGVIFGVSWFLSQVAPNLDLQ

T2: Porcine UGPPase (Sus scrofa, UniProt Q865Y9)
T2 construct: Fresh porcine kidney, 3.6-kg of weight, was homogenized; from tissue; host or cells: porcine kidney
T2 sequence (Q865Y9 1-222): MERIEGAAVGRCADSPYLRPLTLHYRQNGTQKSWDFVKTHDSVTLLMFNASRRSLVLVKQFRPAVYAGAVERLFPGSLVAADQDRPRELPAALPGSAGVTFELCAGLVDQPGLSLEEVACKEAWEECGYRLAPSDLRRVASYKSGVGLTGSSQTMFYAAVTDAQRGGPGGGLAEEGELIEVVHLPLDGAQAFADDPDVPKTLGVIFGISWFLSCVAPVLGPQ


What was measured:
[1] = target: T1, human UGPPase; test: UGPPase activity measurement (G1P produced, coupled NADH read-out), substrate specificity and UDPG dependence, human recombinant enzyme; format: biochemical; details: 5 mM of corresponding substrate, UDPG = 100%
Protocol: (§1) UGPPase activity is defined based on the amount of G1P produced by the enzyme. The measurement is carried in two-step reactions according to the method reported by Rodriguez-Lopez et al. (11). In the first reaction, 50 μl of the reaction mixture consisting of a sample containing UGPPase, 0-20 mM concentration of a sugar nucleotide (UDP-, ADP- or GDP-glucose)(SIGMA), 20 mM MgCl2, and 50 mM Tris-HCl (pH 9.0), and the mixture is incubated at 37° C. for 30 minutes. As a blank, the same sample that has been boiled for two minutes to inactivate UGPPase is used. After the incubation period, the reaction is terminated by a two-minute boiling, and the mixture centrifuged at 20,000 g for 10 minutes at 4° C.
(§2) The reaction mixture is placed in a 96-well FluoroNunc™ plate (NUNC) and incubated at 37° C. for 10 minutes. This second reaction produces an equimolar amount of NADH to that of G1P produced in the first reaction. The amount of NADH is determined by measuring OD at 340 nm using a microplate reader (MOLECULAR DEVICE).
(§3) The activity was calculated as follows: 1U=[a]/30/0.03 where [a]is the amount in μmol of NADH produced in the reaction.
(§4) The above conditions of the first reaction were modified according to the purpose of each of the test, as specifically indicated below.

[2] = target: T2, Porcine UGPPase; test: UGPPase activity measurement (G1P produced, coupled NADH read-out), substrate specificity and UDPG dependence, porcine enzyme; format: biochemical, pig; details: 5 mM of corresponding substrate, UDPG = 100%
Protocol: as §1, §2, §3, §4

[3] = target: rabbit anti-hUGPPase antibody; test: hUGPPase ELISA; format: binding; details: rabbit anti-hUGPPase antibody as solid phase, fusion protein as standard (FIG. 23)
Protocol: The rabbit anti-hUGPPase antibody prepared in (14) above was diluted with 50 mM NaHCO3, pH 9.6 to prepare a 25 μg/ml solution. The solution was added to the wells of a 96-well plate (NUNC), 100 μl each, and incubated at 37° C. for 1 hour for coating. The antibody solution was removed and 300 μl of a blocking buffer [1.0% (w/v) BSA, PBS, 10 mM glycine, pH 7.4] was added to each well and incubated at 37° C. for 1 hour for blocking.
For preparation of a standard, hUGPPase His-tag fusion protein was diluted stepwise to 10 μg/ml-0.1 ng/ml using a dilution buffer [20 mM Tris, 150 mM NaCl, 0.1% (w/v) BSA, pH7.4].
To use as samples, two types of E. coli AD494(DE3) cells, the one with introduced plasmid pET-19b AAD15563.1 and the other with plasmid pET-19b, respectively, were lysed and diluted to 50, 5, 0.5 and 0.05 μg/ml with the dilution buffer. Each well of the plate was removed of the blocking buffer and washed 3 times with 300 μl each of TTBS. To each well was added 100 μl of the standard or the sample solution and an incubation followed at 37° C. for 1 hour.
For detection of hUGPPase His-tag fusion protein, the HRP-conjugated rabbit anti-hUGPPase antibody prepared in (15) was used after dilution to 0.5 μg/ml with the dilution buffer. […] After a 5-min incubation at room temperature, 50 μl of 2M H2SO4 was added to each well to terminate the reaction, and OD at 450 nm was measured.

[4] = Specific activity and optimal pH of purified UGPPase products; format: biochemical; details: UGPPase activity
Protocol: as §1, §2, §3, §4

| Molecule | % activity with respect to UDPG [1] | % activity with respect to UDPG [2] | EC50 (effecter concentration for half-maximum response) of the ELISA system [3] [ng/mL] | Specific activity of the final purified product [4] [U/mg] | Specific activity of the final purified product ([4]; listed as r-hUGPPase) [U/mg] |
| --- | --- | --- | --- | --- | --- |
| Nc1ncnc2c1ncn2[C@@H]1O[C@H](COP(=O)(O)O)[C@@H](O)[C@H]1O [AMP, adenosine 5′-monophosphate] | bdl | bdl |  |  |  |
| Nc1ncnc2c1ncn2[C@@H]1O[C@H](COP(=O)(O)OP(=O)(O)OC[C@H]2OC(O)[C@H](O)[C@@H]2O)[C@@H](O)[C@H]1O (stereo partly shown) [ADP-ribose] | 110% | 95% |  |  |  |
| Nc1ncnc2c1ncn2[C@@H]1O[C@H](COP(=O)(O)OP(=O)(O)OP(=O)(O)O)[C@@H](O)[C@H]1O [ATP] | bdl | bdl |  |  |  |
| NC(=O)c1ccc[n+]([C@@H]2O[C@H](COP(=O)([O-])OP(=O)(O)OC[C@H]3O[C@@H](n4cnc5c(N)ncnc54)[C@H](O)[C@@H]3O)[C@@H](O)[C@H]2O)c1 [NAD] | bdl | bdl |  |  |  |
| O=C(O)[C@H]1O[C@H](OP(=O)(O)OP(=O)(O)OC[C@H]2O[C@@H](n3ccc(=O)[nH]c3=O)[C@H](O)[C@@H]2O)[C@H](O)[C@@H](O)[C@@H]1O [UDP-glucuronic] | bdl | bdl |  |  |  |
| O=[N+]([O-])c1ccc(OP(=O)(O)O)cc1 [PNPP] | bdl | bdl |  |  |  |
| Nc1ncnc2c1ncn2[C@@H]1O[C@H](COP(=O)(O)OP(=O)(O)O)[C@@H](O)[C@H]1O [ADP] | bdl | bdl |  |  |  |
| Nc1nc2c(ncn2[C@@H]2O[C@H](COP(=O)(O)OP(=O)(O)O[C@H]3O[C@H](CO)[C@@H](O)[C@H](O)[C@H]3O)[C@@H](O)[C@H]2O)c(=O)[nH]1 [GDPG, GDP-glucose] | ~10% | ~10% |  |  |  |
| O=c1ccn([C@@H]2O[C@H](COP(=O)(O)OP(=O)(O)OP(=O)(O)O)[C@@H](O)[C@H]2O)c(=O)[nH]1 [UTP] | bdl | bdl |  |  |  |
| O=[N+]([O-])c1ccc(OP(=O)(O)Oc2ccc([N+](=O)[O-])cc2)cc1 [Bis-PNPP] | bdl | bdl |  |  |  |
| Nc1ccn([C@@H]2O[C@H](COP(=O)(O)OP(=O)(O)O[C@H]3O[C@H](CO)[C@@H](O)[C@H](O)[C@H]3O)[C@@H](O)[C@H]2O)c(=O)n1 [CDPG] | 3% | 2% |  |  |  |
| hUGPPase His-tag fusion protein: His-tagged hUGPPase expressed from pET-19b AAD15563.1 in E. coli, purified; ELISA standard (protein, left off: small tags and cut ends, His-tagged hUGPPase expressed from pET-19b AAD15563.1 in E. coli, purified; ELISA standard) MGLLLPLPVPGLLLLEAETHPHFPCNHGQEGACTRHARVRAYPGPLVHRRKRPAWLWELAAPACPGAAMERIEGASVGRCAASPYLRPLTLHYRQNGAQKSWDFMKTHDSVTVLLFNSSRRSLVLVKQFRPAVYAGEVERRFPGSLAAVDQDGPRELQPALPGSAGVTVELCAGLVDQPGLSLEEVACKEAWEECGYHLAPSDLRRVATYWSGVGLTGSRQTMFYTEVTDAQRSGPGGGLVEEGELIEVVHLPLEGAQAFADDPDIPKTLGVIFGVSWFLSQVAPNLDLQ |  |  | 246.8 |  |  |
| human UGPPase: recombinant protein AAD15563.1 (SEQ ID NO:2) expressed in E. coli AD494(DE3), final MonoP-purified product (protein, listed as Homo sapiens, USPPase) MERIEGASVGRCAASPYLRPLTLHYRQNGAQKSWDFMKTHDSVTVLLFNSSRRSLVLVKQFRPAVYAGEVERRFPGSLAAVDQDGPRELQPALPGSAGVTVELCAGLVDQPGLSLEEVACKEAWEECGYHLAPSDLRRVATYWSGVGLTGSRQTMFYTEVTDAQRSGPGGGLVEEGELIEVVHLPLEGAQAFADDPDIPKTLGVIFGVSWFLSQVAPNLDLQ |  |  |  | 6.7 | 6.74 |
